Laboratory results reported in patent US20100168093A1, “SUBSTITUTED 3-AMINO-4 -HYDROXY PYRROLIDINES COMPOUNDS, THEIR PREPARATION AND USE AS MEDICAMENTS” (priority 2006, published 2010).
Where a name gives a salt, the structure may show the parent alone.

Target: T1, Sigma-1 receptor (Cavia porcellus, UniProt Q60492)
T1 construct: guinea pig brains were homogenized; from tissue; host or cells: guinea pig brain membranes
Test: Sigma-1 receptor binding assay, [3H](+)-pentazocine displacement in brain membranes
Conditions: compound at 10^−7 M, [3H](+)-pentazocine 0.5 nM, guinea pig brain membranes, non-specific binding defined by 1 μM haloperidol; for inhibition at 0.1 µM: 2.5 h, read-out: Percent Replacement Sigma-1 receptor [10^−7 M]
Method: Some representative compounds of the invention were tested for their activity as sigma (sigma-1) inhibitors. The following protocol was followed:
Brain membrane preparation and binding assays for the σ1-receptor were performed as described (DeHaven-Hudkins et al., 1992, Eur. J. Pharmacol. 227, 371-378.) with some modifications. In brief, guinea pig brains were homogenized in 10 vols. (w/v) of Tris-HCl 50 mM 0.32 M sucrose, pH 7.4, with a Kinematica Polytron PT 3000 at 15000 r.p.m. for 30 s. The homogenate was centrifuged at 1000g for 10 min at 4° C. and the supematants collected and centrifuged again at 48000 g for 15 min at 4° C. The pellet was resuspended in 10 volumes of Tris-HCl buffer (50 mM, pH 7.4), incubated at 37° C. for 30 min, and centrifuged at 48000 g for 20 min at 4° C. Following this, the pellet was resuspended in fresh Tris-HCl buffer (50 mM, pH 7.4) and stored on ice until use.
Each assay tube contained 10 μL of [^3H](+)-pentazocine (final concentration of 0.5 nM), 900 μL of the tissue suspension to a final assay volume of 1 mL and a final tissue concentration of approximately 30 mg tissue net weight/mL. Non-specific binding was defined by addition of a final concentration of 1 μM haloperidol. All tubes were incubated at 37° C. for 150 min before termination of the reaction by rapid filtration over Schleicher & Schuell GF 3362 glass fibre filters [previously soaked in a solution of 0.5% polyethylenimine for at least 1 h]. Filters were then washed with four times with 4 mL of cold Tris-HCl buffer (50 mM, pH 7.4). Following addition of scintillation cocktail, the samples were allowed to equilibrate overnight. The amount of bound radioactivity was determined by liquid scintillation spectrometry using a Wallac Winspectral 1414 liquid scintillation counter. Protein concentrations were determined by the method of Lowry et al. (1951; J. Biol. Chem, 193, 265.).

T1 sequence (Q60492 whole entry): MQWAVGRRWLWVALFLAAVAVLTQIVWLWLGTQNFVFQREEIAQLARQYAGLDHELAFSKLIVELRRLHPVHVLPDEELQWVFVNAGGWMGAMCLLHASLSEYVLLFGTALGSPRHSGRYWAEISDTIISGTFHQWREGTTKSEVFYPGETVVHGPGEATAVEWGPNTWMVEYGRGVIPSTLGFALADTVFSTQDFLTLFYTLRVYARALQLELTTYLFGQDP

Row | Compound | inhibition at 0.1 µM [%] | Percent Replacement Sigma-1 receptor [10^−7 M] [%]
1 | CC(=O)O[C@@H]1CN(Cc2ccccc2)C[C@H]1N1CCN(S(=O)(=O)c2ccccc2-c2ccccc2)CC1 (relative stereo) [Example 27, trans 1-Benzyl-4-(4-(2-phenyl-phenylsulfonyl)piperazin-1-yl)pyrrolidin-3-yl acetate] | 24.7 | 
2 | O[C@@H]1CN(Cc2ccccc2)C[C@H]1N1CCc2ccccc2C1 [Example 1, (3,4-trans)-1-benzyl-4-(3,4-dihydroisoquinolin-2(1H)-yl)pyrrolidine-3-ol] | 84.9 | 
3 | O[C@@H]1CN(Cc2ccccc2)C[C@H]1N1CCC(CN2CCc3ccccc3C2)CC1 [Example 5, (3,4-trans)-1-benzyl-4-(4-((3,4-dihydrolsoquinolin-2(1H)-yl)methyl)piperidin-1-yl)pyrrolidine-3-ol] | 63.5 | 
4 | O[C@@H]1CN(Cc2ccccc2)C[C@H]1NCCCN1CCc2ccccc2C1 [Example 9, (3,4-trans)-1-benzyl-4-(3-(3,4-dihydroisoquinolin-2(1H)-yl)propylamino)pyrrolidine-3-ol] | 38.6 | 
5 | COc1ccnc(N2CCN([C@@H]3CN(Cc4ccccc4)C[C@H]3O)CC2)n1 [Example 10, (3,4-trans)-1-benzyl-4-(4-(4-methoxypyrimidin-2-yl)piperazin-1-yl)pyrrolidine-3-ol] | 77.8 | 
6 | O[C@@H]1CN(Cc2ccccc2)C[C@H]1N1CCc2cccc3c2C1CC3 (stereo partly drawn) [Example 11, (3,4-trans)-1-benzyl-4-(2,3,8,8a-tetrahydrocyclopenta[ij]isoquinolin-1(7H)-yl)pyrrolidine-3-ol] | 81.1 | 
7 | CC(C)(C)OC(=O)N1CCN([C@@H]2CN(Cc3ccccc3)C[C@H]2O)CC1 [Example 12, tert-butyl-4-((3,4-trans)-1-benzyl-4-hydroxypyrrolidine-3-yl)piperazine-1-carboxylate] | 96.5 | 
8 | C[C@@H](c1ccccc1)N1C[C@@H](O)[C@H](N2CCc3ccccc3C2)C1 [Example 16, (3,4-trans)-4-(3,4-dihydroisoquinolin-2(1H)-yl)-1((S)-1-phenylethyl)pyrrolidine-3-ol] | 49.9 | 
9 | CC(=O)O[C@@H]1CN(Cc2ccccc2)C[C@H]1N1CCN(C(=O)OC(C)(C)C)CC1 [Example 24] | 73 | 
10 | O[C@@H]1CN(Cc2ccccc2)C[C@H]1Nc1ccccc1 [Example 29, (3,4-trans)-1-benzyl-4-(phenylamino)pyrrolidin-3-ol] | 39.3 | 
11 | CCCCCCCCN[C@@H]1CN(Cc2ccccc2)C[C@H]1O [Example 31, (3R,4R)-1-benzyl-4-(octylamino)pyrrolidin-3-ol] | 89.9 | 
12 | COc1ccc(CN[C@@H]2CN(Cc3ccccc3)C[C@H]2O)cc1 [Example 32, (3,4-trans)-1-benzyl-4-(4-methoxybenzylamino)pyrrolidin-3-ol] | 59.1 | 
13 | COc1ccc(N[C@@H]2CN(Cc3ccccc3)C[C@H]2O)cc1 [Example 37, (3R,4R)-1-benzyl-4-(4-methoxyphenylamino)pyrrolidin-3-ol] | 65.4 | 
14 | COC(=O)c1ccc(N[C@@H]2CN(Cc3ccccc3)C[C@H]2O)cc1 [Example 38, Methyl 4-((3,4-trans)-1-benzyl-4-hydroxypyrrolidin-3-ylamino)benzoate] | 55.9 | 
15 | O=S(=O)(c1ccccc1F)N1CCN([C@@H]2CN(Cc3ccccc3)C[C@H]2O)CC1 [Example 48, (3R,4R)-1-benzyl-4-(4-(2-fluorophenylsulfonyl)piperazin-1-yl)pyrrolidin-3-ol] |  | 96.5
16 | CC(=O)O[C@@H]1CN(Cc2ccccc2)C[C@H]1N1CCN(S(=O)(=O)c2ccccc2Cl)CC1 [Example 52, (3R,4R)-1-benzyl-4(4-(2-chlorophenylsulfonyl)piperazin-1-yl)pyrrolidin-3-yl acetate] | 92.4 | 

Now from value to compound:

Row | inhibition at 0.1 µM [%] | Percent Replacement Sigma-1 receptor [10^−7 M] [%] | Compound
17 | 38 |  | CC(=O)O[C@@H]1CN(Cc2ccccc2)C[C@H]1N1CCN(S(=O)(=O)c2ccc(C)cc2)CC1 [Example 56, (3,4-trans)-1-benzyl-4-(4-tosylpiperazin-1-yl)pyrrolidin-3-yl acetate dihydrochloride]
18 | 16.8 |  | Cc1ccc(S(=O)(=O)N2CCN([C@@H]3CN(Cc4ccccc4)C[C@H]3O)CC2)cc1 [Example 57, (3,4-trans)-1-benzyl-4-(4-tosylpiperazin-1-yl)pyrrolidin-3-ol dihydrochloride]
19 | 40.8 |  | CC(=O)O[C@@H]1CN(Cc2ccccc2)C[C@H]1N1CCN(S(=O)(=O)c2cccc3ccccc23)CC1 [Example 60, (3,4-trans)-1-benzyl-4-(4-(naphthalen-1-ylsulfonyl)piperazin-1-yl)pyrrolidin-3-yl acetate dihydrochloride]
20 | 30.1 |  | O=S(=O)(c1cccc2ccccc12)N1CCN([C@@H]2CN(Cc3ccccc3)C[C@H]2O)CC1 [Example 61, (3,4-trans)-1-benzyl-4-(4-(naphthalen-1-ylsulfonyl)piperazin-1-yl)pyrrolidin-3-ol dihydrochloride]
21 | 86.7 |  | O=S(=O)(c1ccccc1Br)N1CCN([C@@H]2CN(Cc3ccccc3)C[C@H]2O)CC1 [Example 67, (3,4-trans)-1-benzyl-4-(4-(2-bromophenylsulfonyl)piperazin-1-yl)pyrrolidin-3-ol dihydrochloride]
22 | 81.4 |  | Cc1ccc(F)cc1S(=O)(=O)N1CCN([C@@H]2CN(Cc3ccccc3)C[C@H]2O)CC1 [Example 70, (3,4-trans)-1-benzyl-4-(4-(5-fluoro-2-methylphenylsulfonyl)piperazin-1-yl)pyrrolidin-3-ol dihydrochioride]
23 | 84 |  | O=S(=O)(c1ccccc1)N1CCN([C@@H]2CN(Cc3ccccc3)C[C@H]2O)CC1 [Example 73, (3,4-trans)-1-benzyl-4-(4-(phenylsulfonyl)piperazin-1-yl)pyrrolidin-3-ol]
24 | 95.5 |  | CC(=O)O[C@@H]1CN(Cc2ccccc2)C[C@H]1N1CCN(S(=O)(=O)c2ccccc2F)CC1 [Example 75, (3,4-trans)-1-benzyl-4-(4-(2-fluorophenylsulfonyl)piperazin-1-yl)pyrrolidin-3-yl acetate dihydrochloride]
25 | 85 |  | O=S(=O)(c1ccccc1F)N1CCN([C@@H]2CN(Cc3ccccc3)C[C@H]2O)CC1 [Example 76, (3,4-trans)-1-benzyl-4-(4-(2-fluorophenylsulfonyl)piperazin-1-yl)pyrrolidin-3-ol dihydrochloride]
26 | 46.1 |  | O=S(=O)(c1ccccc1F)N1CCN([C@H]2CN(Cc3ccccc3)C[C@@H]2O)CC1 [Example 77, (3S,4S)-1-benzyl-4-(4-(2-fluorophenylsulfonyl)piperazin-1-yl)pyrrolidin-3-ol dihydrochloride]
27 | 81.9 |  | O[C@@H]1CN(Cc2ccccc2)C[C@H]1N1CCN(Cc2c(F)cccc2Cl)CC1 [Example 78, (3,4-trans)-1-benzyl-4-(4-(2-chloro-6-fluorobenzyl)piperazin-1-yl)pyrrolidine-3-ol]
28 | 88.4 |  | O[C@@H]1CN(Cc2ccccc2)C[C@H]1N1CCN(Cc2ccc(Cl)c(Cl)c2)CC1 [Example 79, (3,4-trans)-1-benzyl-4-(4-(3,4-dichlorobenzyl)piperazin-1-yl)pyrrolidine-3-ol]
29 | 69.7 |  | O[C@@H]1CN(Cc2ccccc2)C[C@H]1N1CCN(c2ccc(F)cc2)CC1 [Example 83, (3,4-trans)-1-benzyl-4-(4-(4-fluorophenyl)piperazin-1-yl)pyrrolidin-3-ol]
